Test results from patent US9211310B2, “Use of a Chinese medicine composition in preparing medicaments for treating secondary prevention of myocardial infarction” (TASLY PHARMACEUTICAL GROUP CO., LTD, priority 2010, dated 2015).

System: patients after acute myocardial infarction
Experiment: Life quality, Seattle Angina Questionnaire (SAQ), same clinical trial
Format: in vivo, human
Details: PP
From the text: 3508 patients who were in accordance with the diagnostic standards of AMI for 28 days to 2 years and differentiated as Qi deficiency and blood stagnation syndrome by TCM were studied. 0.5 g Chinese medicine composition prepared by the method of EXAMPLE 1 (Coded as QSYQ) was administrated half an hour after meal, 3 times per day.
There were 19 questions in the Seattle angina questionnaire (SAQ), including 5 parts: physical limitation (PL), anginal stability (AS), anginal frequency (AF), treatment satisfaction (TS) and disease perception (DP). After being given necessary explanation by doctors, the questions were answered independently by patients.
They included the overall survival time, angina pectoris score, TCM symptom score and life quality score, where angina pectoris score, TCM symptom score and life quality score were evaluated at randomization, in 1st, 3rd, 6th, 9th, 12th month after treatment and 18th month after follow-up.
All evaluation results of SAQ were described during the period of observation, and Wilcoxon rank sum test was used for inter-group comparison.
The evaluation results in the SAQ were depicted in different observations, and inter-group comparison was tested by Wilcoxon Rank-sum test.

[1] = Follow-up, second line headed Not limited (r60)

CC(=O)Oc1ccccc1C(=O)O [Control group, aspirine]
SAQ 7th question, Highly satisfied: % of patients (Baseline): (20.32%)
SAQ 7th question, Highly satisfied: number of patients (Baseline): 304
SAQ 7th question, Mostly dissatisfied: % of patients (Baseline): (4.88%)
SAQ 7th question, Mostly dissatisfied: number of patients (Baseline): 73
SAQ 7th question, Mostly satisfied: % of patients (Baseline): (46.52%)
SAQ 7th question, Mostly satisfied: number of patients (Baseline): 696
SAQ 7th question, Partly satisfied: % of patients (Baseline): (27.94%)
SAQ 7th question, Partly satisfied: number of patients (Baseline): 418
SAQ Question 1-1 Mildly limited, number of patients (Baseline): 30
SAQ Question 1-1 Mildly limited, percent of patients (Baseline): (2.01%)
SAQ Question 1-1 Moderately limited, number of patients (Baseline): 13
SAQ Question 1-1 Moderately limited, percent of patients (Baseline): (0.87%)
SAQ Question 1-1 Not limited, number of patients (Baseline): 1359
SAQ Question 1-1 Not limited, percent of patients (Baseline): (90.96%)
SAQ Question 1-1 Other reasons, number of patients (Baseline): 4
SAQ Question 1-1 Other reasons, percent of patients (Baseline): (0.27%)
SAQ Question 1-1 Severely limited, number of patients (Baseline): 1
SAQ Question 1-1 Severely limited, percent of patients (Baseline): (0.07%)
SAQ Question 1-1 Slightly limited, number of patients (Baseline): 87
SAQ Question 1-1 Slightly limited, percent of patients (Baseline): (5.82%)
SAQ Question 1-2 Mildly limited, number of patients (Baseline): 42
SAQ Question 1-2 Mildly limited, percent of patients (Baseline): (2.81%)
SAQ Question 1-2 Moderately limited, number of patients (Baseline): 13
SAQ Question 1-2 Moderately limited, percent of patients (Baseline): (0.87%)
SAQ Question 1-2 Not limited, number of patients (Baseline): 1319
SAQ Question 1-2 Not limited, percent of patients (Baseline): (88.29%)
SAQ Question 1-2 Other reasons, number of patients (Baseline): 5
SAQ Question 1-2 Other reasons, percent of patients (Baseline): (0.33%)
SAQ Question 1-2 Severely limited, number of patients (Baseline): 2
SAQ Question 1-2 Severely limited, percent of patients (Baseline): (0.13%)
SAQ Question 1-2 Slightly limited, percent of patients (Baseline): (7.56%)
SAQ Question 1-6: Mildly limited, patients (%) (Baseline): (20.58%)
SAQ Question 1-6: Moderately limited, patients (%) (Baseline): (18.43%)
SAQ Question 1-6: Not limited, patients (%) (Baseline): (25.02%)
SAQ Question 1-6: Other reasons, patients (%) (Baseline): (1.01%)
SAQ Question 1-6: Severely limited, patients (%) (Baseline): (6.99%)
SAQ Question 1-6: Slightly limited, patients (%) (Baseline): (27.98%)
SAQ Question 1-7: Mildly limited, patients (%) (Baseline): (25.03%)
SAQ Question 1-7: Moderately limited, patients (%) (Baseline): (19.44%)
SAQ Question 1-7: Not limited, patients (%) (Baseline): (9.62%)
SAQ Question 1-7: Other reasons, patients (%) (Baseline): (3.14%)
SAQ Question 1-7: Severely limited, patients (%) (Baseline): (21.49%)
SAQ Question 1-7: Slightly limited, patients (%) (Baseline): (21.28%)
SAQ Question 1-8: Mildly limited, patients (%) (Baseline): (24.40%)
SAQ Question 1-8: Moderately limited, patients (%) (Baseline): (22.43%)
SAQ Question 1-8: Not limited, patients (%) (Baseline): (7.43%)
SAQ Question 1-8: Other reasons, patients (%) (Baseline): (2.52%)
SAQ Question 1-8: Severely limited, patients (%) (Baseline): (26.45%)
SAQ Question 1-8: Slightly limited, patients (%) (Baseline): (16.77%)
8th question: Dissatisfied, patients (%) (Follow-up): (0.07%)
8th question: Highly satisfied, patients (%) (Follow-up): (28.16%)
8th question: Mostly dissatisfied, patients (%) (Follow-up): (0.64%)
8th question: Mostly satisfied, patients (%) (Follow-up): (60.27%)
8th question: Partly satisfied, patients (%) (Follow-up): (10.87%)
9th question: Few, patients (%) (Follow-up): (44.23%)
9th question: Mild, patients (%) (Follow-up): (27.32%)
9th question: Moderate, patients (%) (Follow-up): (3.87%)
9th question: Severe, patients (%) (Follow-up): (0.14%)
9th question: Uneffective, patients (%) (Follow-up): (24.44%)
10th question: Dissatisfied, patients (%) (Follow-up): (18.11%)
10th question: Highly satisfied, patients (%) (Follow-up): (9.51%)
10th question: Mostly dissatisfied, patients (%) (Follow-up): (19.38%)
10th question: Mostly satisfied, patients (%) (Follow-up): (32.21%)
10th question: Partly satisfied, patients (%) (Follow-up): (20.79%)
11th question: Continuously worried, patients (%) (Follow-up): (1.34%)
11th question: No worried, patients (%) (Follow-up): (8.74%)
11th question: Occasionally worried, patients (%) (Follow-up): (38.83%)
11th question: Often worried, patients (%) (Follow-up): (6.84%)
11th question: Seldom worried, patients (%) (Follow-up): (44.26%)
SAQ 4th question, 1-2 times per week: % of patients (Follow-up): (13.17%)
SAQ 4th question, 1-2 times per week: number of patients (Follow-up): 186
SAQ 4th question, 1-3 times per week: % of patients (Follow-up): (2.83%)
SAQ 4th question, 1-3 times per week: number of patients (Follow-up): 40
SAQ 4th question, <1 time per week: % of patients (Follow-up): (16.08%)
SAQ 4th question, <1 time per week: number of patients (Follow-up): 227
SAQ 4th question, Not used: % of patients (Follow-up): (66.08%)
SAQ 4th question, Not used: number of patients (Follow-up): 933
SAQ 4th question, ≧3 times per week: % of patients (Follow-up): (1.84%)
SAQ 4th question, ≧3 times per week: number of patients (Follow-up): 26
SAQ 4th question, ≧4 times per day: % of patients (Follow-up): (0.00%)
SAQ 4th question, ≧4 times per day: number of patients (Follow-up): 0
SAQ 5th question, 1-2 times per week: % of patients (Follow-up): (32.86%)
SAQ 5th question, 1-2 times per week: number of patients (Follow-up): 465
SAQ 5th question, 1-3 times per day: % of patients (Follow-up): (3.18%)
SAQ 5th question, 1-3 times per day: number of patients (Follow-up): 45
SAQ 5th question, <1 time per week: % of patients (Follow-up): (31.24%)
SAQ 5th question, <1 time per week: number of patients (Follow-up): 442
SAQ 5th question, No onset: % of patients (Follow-up): (7.49%)
SAQ 5th question, No onset: number of patients (Follow-up): 106
SAQ 5th question, ≧3 times per week: % of patients (Follow-up): (25.09%)
SAQ 5th question, ≧3 times per week: number of patients (Follow-up): 355
SAQ 5th question, ≧4 times per day: % of patients (Follow-up): (0.14%)
SAQ 5th question, ≧4 times per day: number of patients (Follow-up): 2
SAQ 6th question, Dissatisfied: % of patients (Follow-up): (0.00%)
SAQ 6th question, Dissatisfied: number of patients (Follow-up): 0
SAQ 6th question, Highly satisfied: % of patients (Follow-up): (28.52%)
SAQ 6th question, Highly satisfied: number of patients (Follow-up): 405
SAQ 6th question, Mostly dissatisfied: % of patients (Follow-up): (0.63%)
SAQ 6th question, Mostly dissatisfied: number of patients (Follow-up): 9
SAQ 6th question, Mostly satisfied: % of patients (Follow-up): (62.25%)
SAQ 6th question, Mostly satisfied: number of patients (Follow-up): 884
SAQ 6th question, Partly satisfied: % of patients (Follow-up): (8.59%)
SAQ 6th question, Partly satisfied: number of patients (Follow-up): 122
SAQ 7th question, Dissatisfied: % of patients (Follow-up): (0.00%)
SAQ 7th question, Dissatisfied: number of patients (Follow-up): 0
SAQ 7th question, Highly satisfied: % of patients (Follow-up): (30.75%)
SAQ 7th question, Highly satisfied: number of patients (Follow-up): 436
SAQ 7th question, Mostly dissatisfied: % of patients (Follow-up): (0.28%)
SAQ 7th question, Mostly dissatisfied: number of patients (Follow-up): 4
SAQ 7th question, Mostly satisfied: % of patients (Follow-up): (62.13%)
SAQ 7th question, Mostly satisfied: number of patients (Follow-up): 881
SAQ 7th question, Partly satisfied: % of patients (Follow-up): (6.84%)
SAQ 7th question, Partly satisfied: number of patients (Follow-up): 97
SAQ Question 1-1 Mildly limited, number of patients (Follow-up): 6
SAQ Question 1-1 Mildly limited, percent of patients (Follow-up): (0.43%)
SAQ Question 1-1 Moderately limited, number of patients (Follow-up): 1
SAQ Question 1-1 Moderately limited, percent of patients (Follow-up): (0.07%)
SAQ Question 1-1 Not limited, number of patients (Follow-up): 1352
SAQ Question 1-1 Not limited, percent of patients (Follow-up): (95.95%)
SAQ Question 1-1 Other reasons, number of patients (Follow-up): 5
SAQ Question 1-1 Other reasons, percent of patients (Follow-up): (0.35%)
SAQ Question 1-1 Severely limited, number of patients (Follow-up): 1
SAQ Question 1-1 Severely limited, percent of patients (Follow-up): (0.07%)
SAQ Question 1-1 Slightly limited, number of patients (Follow-up): 44
SAQ Question 1-1 Slightly limited, percent of patients (Follow-up): (3.12%)
SAQ Question 1-2 Mildly limited, number of patients (Follow-up): 8
SAQ Question 1-2 Mildly limited, percent of patients (Follow-up): (0.57%)
SAQ Question 1-2 Moderately limited, number of patients (Follow-up): 0
SAQ Question 1-2 Moderately limited, percent of patients (Follow-up): (0.00%)
SAQ Question 1-2 Not limited, number of patients (Follow-up): 1336
SAQ Question 1-2 Not limited, percent of patients (Follow-up): (94.82%)
SAQ Question 1-2 Severely limited, number of patients (Follow-up): 2
SAQ Question 1-2 Severely limited, percent of patients (Follow-up): (0.14%)
SAQ Question 1-2 Slightly limited, number of patients (Follow-up): 56
SAQ Question 1-2 Slightly limited, percent of patients (Follow-up): (3.97%)
SAQ Question 1-6: Mildly limited, patients (%) (Follow-up): (11.32%)
SAQ Question 1-6: Moderately limited, patients (%) (Follow-up): (9.19%)
SAQ Question 1-6: Not limited, patients (%) (Follow-up): (41.95%)
SAQ Question 1-6: Other reasons, patients (%) (Follow-up): (0.85%)
SAQ Question 1-6: Severely limited, patients (%) (Follow-up): (2.28%)
SAQ Question 1-6: Slightly limited, patients (%) (Follow-up): (34.40%)
SAQ Question 1-7: Mildly limited, patients (%) (Follow-up): (21.92%)
SAQ Question 1-7: Moderately limited, patients (%) (Follow-up): (6.63%)
SAQ Question 1-7: Not limited, patients (%) (Follow-up): (22.35%)
SAQ Question 1-7: Other reasons, patients (%) (Follow-up): (2.60%)
SAQ Question 1-7: Severely limited, patients (%) (Follow-up): (11.68%)
SAQ Question 1-7: Slightly limited, patients (%) (Follow-up): (34.82%)
SAQ Question 1-8: Mildly limited, patients (%) (Follow-up): (24.93%)
SAQ Question 1-8: Moderately limited, patients (%) (Follow-up): (11.85%)
SAQ Question 1-8: Not limited, patients (%) (Follow-up): (15.12%)
SAQ Question 1-8: Other reasons, patients (%) (Follow-up): (3.27%)
SAQ Question 1-8: Severely limited, patients (%) (Follow-up): (14.75%)
SAQ Question 1-8: Slightly limited, patients (%) (Follow-up): (30.09%)
SAQ Question 1-2 Not limited, number of patients [1]: 7
SAQ Question 1-2 Not limited, percent of patients [1]: (0.50%)
